Test results from ChEMBL document CHEMBL1201862, “PubChem BioAssay data set” (2004).
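Tested at 5 concentrations; 48 h exposure; 96-well plates; endpoints linearly interpolated, else capped at highest concentration. GI50: concentration for 50% inhibition of growth.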 Activity calls are given as the source filed them. No stated cut-off is given here; in the data, active = GI50 up to about 1.1 µM and inactive = higher.

Assays:
Assay in all cases: NCI-60 cell line screen, 48 h
SK-OV-3 = tested on: SK-OV-3
SK-MEL-28 = tested on: SK-MEL-28
M14 = tested on: M14
CCRF-CEM = tested on: CCRF-CEM
SR = tested on: SR
OVCAR-8 = tested on: OVCAR-8
SK-MEL-2 = tested on: SK-MEL-2
A549 = tested on: A549
NCI-H226 = tested on: NCI-H226
HL-60 = tested on: HL-60
EKVX = tested on: EKVX
HCT-15 = tested on: HCT-15
NCI-H460 = tested on: NCI-H460
SF-295 = tested on: SF-295
NCI/ADR-RES = tested on: NCI/ADR-RES
HCC 2998 = tested on: HCC 2998
Hs-578T = tested on: Hs-578T
HT-29 = tested on: HT-29
MOLT-4 = tested on: MOLT-4
A498 = tested on: A498

CN(C)CCNc1ncnc2[nH]c(-c3ccc4ccccc4c3)nc12
GI50 (SK-OV-3): > 100 µM (inactive) | GI50 (SK-MEL-28): > 100 µM (inactive) | GI50 (M14): > 100 µM (inactive) | GI50 (CCRF-CEM): > 100 µM (inactive) | GI50 (SR): > 100 µM (inactive) | GI50 (OVCAR-8): > 100 µM (inactive) | GI50 (SK-MEL-2): > 100 µM (inactive) | GI50 (A549): > 100 µM (inactive) | GI50 (NCI-H226): > 100 µM (inactive) | GI50 (HL-60): > 100 µM (inactive) | GI50 (EKVX): > 100 µM (inactive) | GI50 (HCT-15): > 100 µM | GI50 (NCI-H460): > 100 µM (inactive) | GI50 (SF-295): > 100 µM (inactive) | GI50 (NCI/ADR-RES): > 100 µM (inactive) | GI50 (HCC 2998): > 100 µM (inactive) | GI50 (Hs-578T): > 100 µM (inactive) | GI50 (HT-29): > 100 µM (inactive) | GI50 (MOLT-4): > 100 µM (inactive)

CC(C)(C)OC(=O)n1c2ccccc2c2c(=O)nc(N3CCCCC3)sc21
GI50 (SK-OV-3): > 100 µM (inactive) | GI50 (SK-MEL-28): > 100 µM (inactive) | GI50 (M14): > 100 µM (inactive) | GI50 (CCRF-CEM): > 100 µM (inactive) | GI50 (SR): 90.4 µM (inactive) | GI50 (OVCAR-8): > 100 µM (inactive) | GI50 (SK-MEL-2): > 100 µM (inactive) | GI50 (A549): > 100 µM (inactive) | GI50 (HL-60): > 100 µM (inactive) | GI50 (EKVX): > 100 µM (inactive) | GI50 (HCT-15): > 100 µM | GI50 (NCI-H460): 65.2 µM (inactive) | GI50 (SF-295): > 100 µM (inactive) | GI50 (NCI/ADR-RES): > 100 µM (inactive) | GI50 (Hs-578T): > 100 µM (inactive) | GI50 (HT-29): > 100 µM (inactive) | GI50 (MOLT-4): > 100 µM (inactive) | GI50 (A498): > 100 µM (inactive)

C=CCNC1=C2C[C@@H](C)C[C@@H](OC)[C@H](OC(=O)CCN)[C@H](C)/C=C(\C)[C@@H](OC(N)=O)[C@H](OC)/C=C\C=C(/C)C(=O)NC(=CC1=O)C2=O
GI50 (SK-OV-3): 1.35 µM (inactive) | GI50 (SK-MEL-28): 14.5 µM (inactive) | GI50 (M14): 3.71 µM (inactive) | GI50 (SR): 0.938 µM (active) | GI50 (OVCAR-8): 4.18 µM (inactive) | GI50 (SK-MEL-2): 1.9 µM (inactive) | GI50 (A549): 3.4 µM (inactive) | GI50 (HL-60): 3.83 µM (inactive) | GI50 (EKVX): 8.75 µM (inactive) | GI50 (HCT-15): 9.57 µM | GI50 (NCI-H460): 2.77 µM (inactive) | GI50 (SF-295): 3.75 µM (inactive) | GI50 (NCI/ADR-RES): 76.2 µM (inactive) | GI50 (HCC 2998): 1.06 µM (active) | GI50 (Hs-578T): 14.5 µM (inactive) | GI50 (HT-29): 0.409 µM (active) | GI50 (MOLT-4): 3.86 µM (inactive) | GI50 (A498): 3.61 µM (inactive)

COc1cc(/C=C/c2cc(/C=C/c3ccc(O)c(OC)c3)oc(=O)c2)ccc1O
GI50 (SK-OV-3): 9.04 µM (inactive) | GI50 (SK-MEL-28): 6.32 µM (inactive) | GI50 (M14): 5.09 µM (inactive) | GI50 (CCRF-CEM): 3.64 µM (inactive) | GI50 (SR): 3.07 µM (inactive) | GI50 (OVCAR-8): 4.12 µM (inactive) | GI50 (SK-MEL-2): 3.98 µM (inactive) | GI50 (A549): 3.17 µM (inactive) | GI50 (NCI-H226): 10.5 µM (inactive) | GI50 (EKVX): 3.1 µM (inactive) | GI50 (HCT-15): 3.12 µM | GI50 (NCI-H460): 2.29 µM (inactive) | GI50 (SF-295): 2.74 µM (inactive) | GI50 (NCI/ADR-RES): 4.38 µM (inactive) | GI50 (HCC 2998): 1.81 µM (inactive) | GI50 (Hs-578T): 4.54 µM (inactive) | GI50 (HT-29): 2.84 µM (inactive) | GI50 (MOLT-4): 3.48 µM (inactive) | GI50 (A498): 3.9 µM (inactive)

O=C(CNc1c(Cl)cccc1Cl)NC1C=Cc2ccc(S(=O)(=O)Nc3c(Cl)cccc3Cl)cc2C1=O (configuration not stated)
GI50 (SK-OV-3): > 100 µM (inactive) | GI50 (SK-MEL-28): > 100 µM (inactive) | GI50 (M14): > 100 µM (inactive) | GI50 (CCRF-CEM): 53.2 µM (inactive) | GI50 (SR): > 100 µM (inactive) | GI50 (OVCAR-8): > 100 µM (inactive) | GI50 (SK-MEL-2): 56.8 µM (inactive) | GI50 (A549): > 100 µM (inactive) | GI50 (NCI-H226): 17.5 µM (inactive) | GI50 (HL-60): 75.2 µM (inactive) | GI50 (EKVX): 17.7 µM (inactive) | GI50 (HCT-15): 79.1 µM | GI50 (NCI-H460): > 100 µM (inactive) | GI50 (SF-295): 70.8 µM (inactive) | GI50 (NCI/ADR-RES): > 100 µM (inactive) | GI50 (HCC 2998): 67.5 µM (inactive) | GI50 (Hs-578T): 6.71 µM (inactive) | GI50 (HT-29): 50.2 µM (inactive) | GI50 (MOLT-4): > 100 µM (inactive)

CN(C)CCOC1(Cc2ccc(Cl)cc2Cl)CCC(C(C)(C)C)CC1 (configuration not stated)
GI50 (SK-OV-3): 2.25 µM (inactive) | GI50 (SK-MEL-28): 1.65 µM (inactive) | GI50 (M14): 1.79 µM (inactive) | GI50 (CCRF-CEM): 1.86 µM (inactive) | GI50 (SR): 2.52 µM (inactive) | GI50 (OVCAR-8): 1.94 µM (inactive) | GI50 (SK-MEL-2): 1.72 µM (inactive) | GI50 (A549): 3.18 µM (inactive) | GI50 (HCT-15): 1.85 µM | GI50 (NCI-H460): 1.66 µM (inactive) | GI50 (SF-295): 1.65 µM (inactive) | GI50 (NCI/ADR-RES): 2.3 µM (inactive) | GI50 (HCC 2998): 1.63 µM (inactive) | GI50 (Hs-578T): 1.97 µM (inactive) | GI50 (HT-29): 1.52 µM (inactive) | GI50 (MOLT-4): 1.86 µM (inactive) | GI50 (A498): 2.88 µM (inactive)

COC1(OC)C=CC2C1C1C=CC2C1(OC)OC (configuration not stated)
GI50 (SK-OV-3): > 100 µM (inactive) | GI50 (SK-MEL-28): > 100 µM (inactive) | GI50 (M14): > 100 µM (inactive) | GI50 (CCRF-CEM): > 100 µM (inactive) | GI50 (SR): > 100 µM (inactive) | GI50 (OVCAR-8): > 100 µM (inactive) | GI50 (SK-MEL-2): > 100 µM (inactive) | GI50 (A549): > 100 µM (inactive) | GI50 (NCI-H226): > 100 µM (inactive) | GI50 (EKVX): > 100 µM (inactive) | GI50 (HCT-15): > 100 µM | GI50 (NCI-H460): > 100 µM (inactive) | GI50 (SF-295): > 100 µM (inactive) | GI50 (NCI/ADR-RES): > 100 µM (inactive) | GI50 (HCC 2998): > 100 µM (inactive) | GI50 (Hs-578T): > 100 µM (inactive) | GI50 (HT-29): > 100 µM (inactive) | GI50 (MOLT-4): > 100 µM (inactive) | GI50 (A498): > 100 µM (inactive)

CCCCOC(=O)Nc1ccc(S(=O)(=O)Nc2c(Cl)cccc2Cl)cc1
GI50 (SK-OV-3): 25.2 µM (inactive) | GI50 (SK-MEL-28): 24.4 µM (inactive) | GI50 (M14): 43 µM (inactive) | GI50 (CCRF-CEM): 33.6 µM (inactive) | GI50 (SR): 21.4 µM (inactive) | GI50 (OVCAR-8): 22.3 µM (inactive) | GI50 (SK-MEL-2): 26.9 µM (inactive) | GI50 (A549): 37.4 µM (inactive) | GI50 (HL-60): 22.3 µM (inactive) | GI50 (EKVX): 26.6 µM (inactive) | GI50 (HCT-15): 26.7 µM | GI50 (NCI-H460): 31.1 µM (inactive) | GI50 (SF-295): 32.3 µM (inactive) | GI50 (NCI/ADR-RES): 24.3 µM (inactive) | GI50 (HCC 2998): 23.9 µM (inactive) | GI50 (Hs-578T): 43 µM (inactive) | GI50 (HT-29): 14.5 µM (inactive) | GI50 (MOLT-4): 24.3 µM (inactive) | GI50 (A498): 11.1 µM (inactive)

COc1cc2c(cc1C)NC(=O)/C2=C/c1c(Cl)n(-c2ccccc2)c2ccccc12
GI50 (SK-OV-3): 24.4 µM (inactive) | GI50 (SK-MEL-28): 21.8 µM (inactive) | GI50 (M14): 27.4 µM (inactive) | GI50 (CCRF-CEM): 4.42 µM (inactive) | GI50 (SR): 6.12 µM (inactive) | GI50 (OVCAR-8): 23.4 µM (inactive) | GI50 (SK-MEL-2): 11.4 µM (inactive) | GI50 (A549): 7 µM (inactive) | GI50 (HL-60): 3.38 µM (inactive) | GI50 (EKVX): 17.5 µM (inactive) | GI50 (HCT-15): 11.8 µM | GI50 (NCI-H460): 9.59 µM (inactive) | GI50 (SF-295): 11.3 µM (inactive) | GI50 (NCI/ADR-RES): 16.8 µM (inactive) | GI50 (HCC 2998): 8.24 µM (inactive) | GI50 (Hs-578T): 20 µM (inactive) | GI50 (HT-29): 5.25 µM (inactive) | GI50 (MOLT-4): 4.82 µM (inactive) | GI50 (A498): 32.8 µM (inactive)

O=C(O)CC12CC3CC(CC(O)(C3)C1)C2
GI50 (SK-OV-3): > 100 µM (inactive) | GI50 (SK-MEL-28): > 100 µM (inactive) | GI50 (M14): > 100 µM (inactive) | GI50 (SR): > 100 µM (inactive) | GI50 (OVCAR-8): > 100 µM (inactive) | GI50 (SK-MEL-2): > 100 µM (inactive) | GI50 (A549): > 100 µM (inactive) | GI50 (NCI-H226): > 100 µM (inactive) | GI50 (EKVX): > 100 µM (inactive) | GI50 (HCT-15): > 100 µM | GI50 (NCI-H460): > 100 µM (inactive) | GI50 (SF-295): > 100 µM (inactive) | GI50 (NCI/ADR-RES): > 100 µM (inactive) | GI50 (HCC 2998): > 100 µM (inactive) | GI50 (Hs-578T): 27.5 µM (inactive) | GI50 (HT-29): > 100 µM (inactive) | GI50 (A498): > 100 µM (inactive)

COc1ccc2c(c1)c1c(n2CCN2CCOCC2)-c2cccc(OC)c2CC1
GI50 (SK-OV-3): > 100 µM (inactive) | GI50 (SK-MEL-28): 54.1 µM (inactive) | GI50 (M14): 26.5 µM (inactive) | GI50 (CCRF-CEM): 18.7 µM (inactive) | GI50 (SR): 10 µM (inactive) | GI50 (OVCAR-8): 46.8 µM (inactive) | GI50 (SK-MEL-2): 22.3 µM (inactive) | GI50 (A549): 26.2 µM (inactive) | GI50 (NCI-H226): 24.4 µM (inactive) | GI50 (HCT-15): 29.5 µM | GI50 (NCI-H460): 38.9 µM (inactive) | GI50 (SF-295): 30.7 µM (inactive) | GI50 (NCI/ADR-RES): 43.6 µM (inactive) | GI50 (HCC 2998): 26.6 µM (inactive) | GI50 (Hs-578T): 35 µM (inactive) | GI50 (HT-29): 17.1 µM (inactive) | GI50 (MOLT-4): 23.2 µM (inactive) | GI50 (A498): 26.6 µM (inactive)
